Where two headings read alike, the source gives them in different places.
Legend:
MRSA [1] = assay: Screening on Isosensitest agar with incorporated BTA and 10 μg methicillin discs; assay type: cell-based, Staphylococcus aureus; conditions: VRE and MRSA
Description: To find substances related to GBE that might have increased potency, various substances, including those with additional glycine moieties and benzylates, have been screened. Screening was carried out using Isosensitest agar (Oxoid, UK) into which various levels of potential BTAs were incorporated at levels between 0.01 and 1.0%. The agar with incorporated BTA was then used in the manner of a standard antibiotic sensitivity test using 10 μg methicillin discs. The test organism was inoculated onto the agar surface at a concentration suitable to achieve confluent growth after 18 hours incubation at 30° C. After incubation, zone diameters were compared with that achieved by the control plate (Isosensitest alone) for each test organism.

MRSA [2] = assay type: cell-based, Staphylococcus aureus; conditions: GBE 0.00075M [0.15%]
From the text: Stored frozen plasma was pooled from five subjects.
Human plasma may bind or otherwise inactivate foreign substances and good activity in plasma is indicative of good in vivo activity.

MRSA [3] = assay: MIC of methicillin for MRSA isolates grown with glycine or GBE (Table 1); assay type: cell-based, Staphylococcus aureus; conditions: for MIC of methicillin: GBE 0.001M (0.2%)
MRSA [4] = assay type: cell-based, Staphylococcus aureus; conditions: agents not hydrolysed by staphylococcal β-lactamase
[5] = system: vancomycin- and gentamicin-resistant Enterococcus faecium; assay: microbe, parasite or virus in culture; assay type: cell-based; conditions: for MIC of vancomycin: GBE 0.02M
From the text: The agents of the present invention are not limited to the reversal of resistance in Staphylococcus. The test strains in Table 5 are patient-isolates of vancomycin- and gentamicin-resistant Enterococcus faecium. At the time of isolation, they were commonly resistant to all clinically useable antimicrobial agents.

NCC(=O)OCc1ccccc1 [GBE, Glycine Benzyl Ester]
activity against VRE and MRSA relative to glycylglycine benzyl ester (MRSA [1]): greater activity | MIC of methicillin (MRSA [2]; 5518 (EMRSA-1), +1% human plasma): 4 µg/mL | MIC of methicillin (MRSA [2]; 5518 (EMRSA-1), no plasma): 2 µg/mL | MIC of methicillin (MRSA [2]; L277, +1% human plasma): 8 µg/mL | MIC of methicillin (MRSA [2]; L277, no plasma): 4 µg/mL | MIC of methicillin (MRSA [2]; L278, +1% human plasma): 16 µg/mL | MIC of methicillin (MRSA [2]; L278, no plasma): 8 µg/mL | MIC of methicillin (MRSA [2]; L279, +1% human plasma): 16 µg/mL | MIC of methicillin (MRSA [2]; L279, no plasma): 4 µg/mL | MIC of methicillin (MRSA [2]; L280, +1% human plasma): 8 µg/mL | MIC of methicillin (MRSA [2]; L280, no plasma): 4 µg/mL | MIC of methicillin (MRSA [2]; L281, +1% human plasma): 8 µg/mL | MIC of methicillin (MRSA [2]; L281, no plasma): 4 µg/mL | MIC of methicillin (MRSA [2]; L282, +1% human plasma): 16 µg/mL | MIC of methicillin (MRSA [2]; L282, no plasma): 4 µg/mL | MIC of methicillin (MRSA [2]; L283, +1% human plasma): 16 µg/mL | MIC of methicillin (MRSA [2]; L283, no plasma): 4 µg/mL | MIC of methicillin (MRSA [2]; L284, +1% human plasma): 8 µg/mL | MIC of methicillin (MRSA [2]; L284, no plasma): 2 µg/mL | MIC of methicillin (MRSA [2]; L285, +1% human plasma): 16 µg/mL | MIC of methicillin (MRSA [2]; L285, no plasma): 4 µg/mL | MIC of methicillin (MRSA [2]; L286, +1% human plasma): 8 µg/mL | MIC of methicillin (MRSA [2]; L286, no plasma): 4 µg/mL | MIC of methicillin (MRSA [2]; L287, +1% human plasma): 16 µg/mL | MIC of methicillin (MRSA [2]; L287, no plasma): 4 µg/mL | MIC of methicillin (MRSA [2]; L288, +1% human plasma): 16 µg/mL | MIC of methicillin (MRSA [2]; L288, no plasma): 2 µg/mL | MIC of methicillin (MRSA [2]; L289, +1% human plasma): 16 µg/mL | MIC of methicillin (MRSA [2]; L289, no plasma): 4 µg/mL | MIC of methicillin (MRSA [2]; L290, +1% human plasma): 8 µg/mL | MIC of methicillin (MRSA [2]; L290, no plasma): 4 µg/mL | MIC of methicillin (MRSA [2]; L291, +1% human plasma): 16 µg/mL | MIC of methicillin (MRSA [2]; L291, no plasma): 4 µg/mL | MIC of methicillin (MRSA [2]; L292, +1% human plasma): 32 µg/mL | MIC of methicillin (MRSA [2]; L292, no plasma): 4 µg/mL | MIC of methicillin (MRSA [2]; L293, +1% human plasma): 8 µg/mL | MIC of methicillin (MRSA [2]; L293, no plasma): 2 µg/mL | MIC of methicillin (MRSA [2]; L294, +1% human plasma): 8 µg/mL | MIC of methicillin (MRSA [2]; L294, no plasma): 2 µg/mL | strains tested with complete transformation (MRSA [3]; 0.02 M glycylbenzyl ester, said of Table 1): 100% | MIC of methicillin (MRSA [3]; CD40 (EMRSA-1)): 2 µg/mL | MIC of methicillin (MRSA [3]; DS09 (EMRSA-1)): 2 µg/mL | MIC of methicillin (MRSA [3]; E15-97 (EMRSA-15)): 2 µg/mL | MIC of methicillin (MRSA [3]; E16-96 (EMRSA-16)): 2 µg/mL | MIC of methicillin (MRSA [3]; JF1-32 (EMRSA-1)): 2 µg/mL | MIC of methicillin (MRSA [3]; L265): 2 µg/mL | MIC of methicillin (MRSA [3]; L266): 2 µg/mL | MIC of methicillin (MRSA [3]; L267): 2 µg/mL | MIC of methicillin (MRSA [3]; L268): 2 µg/mL | MIC of methicillin (MRSA [3]; L269): 1 µg/mL | MIC of methicillin (MRSA [3]; L270): 1 µg/mL | MIC of methicillin (MRSA [3]; L271): 2 µg/mL | MIC of methicillin (MRSA [3]; L272): 1 µg/mL | MIC of methicillin (MRSA [3]; L273): 1 µg/mL | MIC of methicillin (MRSA [3]; L274): 2 µg/mL | MIC of methicillin (MRSA [3]; L275): 2 µg/mL | MIC of methicillin (MRSA [3]; L276): 2 µg/mL | MIC of methicillin (MRSA [3]; L277): 2 µg/mL | MIC of methicillin (MRSA [3]; L278): 4 µg/mL | MIC of methicillin (MRSA [3]; L279): 2 µg/mL | MIC of methicillin (MRSA [3]; L280): 2 µg/mL | MIC of methicillin (MRSA [3]; L281): 2 µg/mL | MIC of methicillin (MRSA [3]; L282): 2 µg/mL | MIC of methicillin (MRSA [3]; L283): 2 µg/mL | MIC of methicillin (MRSA [3]; L284): 2 µg/mL | MIC of methicillin (MRSA [3]; L285): 2 µg/mL | MIC of methicillin (MRSA [3]; L286): 2 µg/mL | MIC of methicillin (MRSA [3]; L287): 2 µg/mL | MIC of methicillin (MRSA [3]; L288): 2 µg/mL | MIC of methicillin (MRSA [3]; L289): 2 µg/mL | MIC of methicillin (MRSA [3]; L290): 2 µg/mL | MIC of methicillin (MRSA [3]; L291): 2 µg/mL | MIC of methicillin (MRSA [3]; L292): 2 µg/mL | MIC of methicillin (MRSA [3]; L293): 2 µg/mL | MIC of methicillin (MRSA [3]; L294): 2 µg/mL | MIC of methicillin (MRSA [3]; MC01 (EMRSA-1)): 2 µg/mL | MIC of methicillin (MRSA [3]; NCTC 12493): 0.015 µg/mL | MIC of methicillin (MRSA [3]; PS3-32 (EMRSA-1)): 2 µg/mL | MIC of methicillin (MRSA [3]; SN31 (EMRSA-1)): 2 µg/mL | MIC of methicillin (MRSA [3]; ST11 (EMRSA-1)): 2 µg/mL | MIC of methicillin (MRSA [3]; SW2-32 (EMRSA-1)): 2 µg/mL | effect on sensitivity to methicillin compared with glycine (MRSA [3]; Table 1): increased sensitivity to methicillin to a much greater extent than glycine | sensitivity of MRSA to other β-lactam agents in the presence of GBE (MRSA [4]): sensitive to cephalosporins and other β-lactam agents | strains tested with complete transformation (target MIC of vancomycin 2 mg/l) ([5]; 0.02 M GBE, Table 5): 100% | MIC of vancomycin ([5]; ATCC 29212): 1 µg/mL | MIC of vancomycin ([5]; BBC): 2 µg/mL | MIC of vancomycin ([5]; E254): 2 µg/mL | MIC of vancomycin ([5]; E267): 2 µg/mL | MIC of vancomycin ([5]; E271): 2 µg/mL | MIC of vancomycin ([5]; E285): 2 µg/mL | MIC of vancomycin ([5]; E297): 2 µg/mL | MIC of vancomycin ([5]; GBC): 2 µg/mL | MIC of vancomycin ([5]; S226): 2 µg/mL | MIC of vancomycin ([5]; S227): 2 µg/mL | MIC of vancomycin ([5]; S283): 2 µg/mL | MIC of vancomycin ([5]; S302): 2 µg/mL | MIC of vancomycin ([5]; S315): 1 µg/mL | MIC of vancomycin ([5]; S317): 2 µg/mL | MIC of vancomycin ([5]; S319): 2 µg/mL | MIC of vancomycin ([5]; S333): 2 µg/mL | MIC of vancomycin ([5]; S337): 2 µg/mL | MIC of vancomycin ([5]; S393): 2 µg/mL | MIC of vancomycin ([5]; S497): 1 µg/mL | MIC of vancomycin ([5]; S556): 1 µg/mL | MIC of vancomycin ([5]; WBC): 2 µg/mL

From patent US20060040871A1, “Bacterial transforming agent” (priority 2003, published 2006)
